What was measured:
[1] = system: M51 WT cells (carcinoma of stomach); experiment: SRB assay, M51 WT; type: cell-based, human; details: mean ± SD of at least three experiments
Description: (§5) Six unambiguously characterized tumor cell lines of human origin (native cell lines and those converted into resistant subclones) and two non-tumor cell lines are used for further investigations (table 2).
(§6) The sensitivity of the cell lines to the substance (Ic′) is determined in a so-called sulforhodamine B (SRB) assay.
(§7) The concentration of substance (Ic′) which inhibits cell growth by 50% (IC50, determined from semilogarithmic dose versus effect plots) are indicated.

[2] = system: M51 DDP cells (cisplatin resistant); experiment: SRB assay, M51 DDP; type: cell-based, human
Description: as §6, §7

[3] = system: HT29 WT cells (adenocarcinoma of colon); experiment: SRB assay, HT29 WT; type: cell-based, human
Description: as §6, §7

[4] = system: HT29 24R cells (5-FU resistant); experiment: SRB assay, HT29 24R; type: cell-based, human
Description: as §6, §7

[5] = system: HT29 SN38 cells (SN38 resistant); experiment: SRB assay, HT29 SN38; type: cell-based, human
Description: as §6, §7

[6] = system: HCT8 WT cells (carcinoma of colon); experiment: SRB assay, HCT8 WT; type: cell-based, human
Description: The target cell used is, inter alia, a bowel cancer cell line of human origin (HCT8 WT).

[7] = system: HCT8 SN38 cells (SN38 resistant); experiment: SRB assay, HCT8 SN38; type: cell-based, human
Description: as §6, §7

[8] = system: HCT8 ICID cells (raltitrexed resistant); experiment: SRB assay, HCT8 ICID; type: cell-based, human
Description: as §6, §7

[9] = system: MCF-7 WT cells (adenocarcinoma of breast); experiment: SRB assay, MCF-7 WT; type: cell-based, human
Description: as §6, §7

[10] = system: MCF-7 AD cells (doxorubicin resistant gp 170+); experiment: SRB assay, MCF-7 AD; type: cell-based, human
Description: as §5, §6, §7

[11] = system: MCF-7 24R cells (5-FU resistant); experiment: SRB assay, MCF-7 24R; type: cell-based, human
Description: as §5, §6, §7

[12] = system: A2780 WT cells (adenocarcinoma of ovary); experiment: SRB assay, A2780 WT; type: cell-based, human
Description: as §5, §6, §7

[13] = system: A2780 DX5 cells (doxorubicin resistant gp 170+); experiment: SRB assay, A2780 DX5; type: cell-based, human; details: A2780 DX5, doxorubicin resistant gp 170+
Description: as §5, §6, §7

[14] = system: A2780 CP2 cells (cisplatin resistant); experiment: SRB assay, A2780 CP2; type: cell-based, human
Description: as §5, §6, §7

[15] = system: H460 WT cells (large-cell lung carcinoma); experiment: SRB assay, H460 WT; type: cell-based, human
Description: as §5, §6, §7

3T3 mouse fibroblasts = experiment: SRB assay, 3T3; type: cell-based; details: 3T3 mouse fibroblasts (non-tumor)
Description: as §5, §6, §7

[16] = system: MCR-5 diploid embryonic lung fibroblasts; experiment: SRB assay, MCR-5; type: cell-based; details: MCR-5 fibroblasts (non-tumor)
Description: as §5, §6, §7

topoisomerase I = target: T1, topoisomerase I (Homo sapiens, UniProt P11387); experiment: Topo I unwinding assay (pBR322 plasmid DNA, cell nucleus extract); type: biochemical; details: for concentration for in vitro topoisomerase I inhibition as multiple of the IC50 of tumor growth: multiple of the concentration inhibiting tumor cell growth by 50%
T1 construct: 160 ng of cell nucleus extract with the topoisomerase I present therein; endogenous in cells; host or cells: tumor cell lines (cell nucleus extract)
T1 sequence (P11387 1-765): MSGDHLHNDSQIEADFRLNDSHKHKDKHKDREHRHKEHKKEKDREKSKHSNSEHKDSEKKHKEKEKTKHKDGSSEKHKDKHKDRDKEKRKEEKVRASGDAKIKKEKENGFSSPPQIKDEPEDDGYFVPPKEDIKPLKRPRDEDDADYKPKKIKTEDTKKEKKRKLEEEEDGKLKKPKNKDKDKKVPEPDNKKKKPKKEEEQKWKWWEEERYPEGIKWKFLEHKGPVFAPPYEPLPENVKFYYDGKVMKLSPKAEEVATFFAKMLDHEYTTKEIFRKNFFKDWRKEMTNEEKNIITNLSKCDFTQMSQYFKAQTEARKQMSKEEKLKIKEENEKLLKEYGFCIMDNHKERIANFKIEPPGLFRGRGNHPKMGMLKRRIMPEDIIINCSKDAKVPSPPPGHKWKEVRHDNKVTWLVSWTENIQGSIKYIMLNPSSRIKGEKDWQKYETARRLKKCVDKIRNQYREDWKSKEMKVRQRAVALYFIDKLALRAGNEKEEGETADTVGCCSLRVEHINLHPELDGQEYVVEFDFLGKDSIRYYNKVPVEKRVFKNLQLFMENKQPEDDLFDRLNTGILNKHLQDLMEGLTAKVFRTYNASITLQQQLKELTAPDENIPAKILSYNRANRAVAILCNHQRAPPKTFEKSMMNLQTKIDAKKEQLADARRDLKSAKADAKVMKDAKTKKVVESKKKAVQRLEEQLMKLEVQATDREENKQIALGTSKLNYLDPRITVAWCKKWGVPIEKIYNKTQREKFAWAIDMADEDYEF
Description: The effect of the substance (Ic′) on topoisomerase I is investigated by carrying out the so-called Topo I unwinding assay. The assay is based on an ATP-independent unwinding of twisted pBR322 plasmid DNA dimers by topoisomerase I. The two different topological forms of the plasmid DNA, the twisted form and unwound, relaxed form, are separated in this investigation by means of an agarose gel. The enzyme topoisomerase I is obtained for this purpose from cell nucleus extracts of the tumor cell lines.
Cell nucleus extracts are obtained by the method of Sullivan with the modifications of Danks et al.

[17] = system: HCT8 WT bowel cancer cells; experiment: Cell cycle analysis by flow cytometry (BrdU/PI); type: cell-based, human; details: IC50 concentration, 24 hours
Description: Flow cytometric investigations by an adapted method of Tsugita M. et al. are used for the analysis.
Exponentially growing HCT8 WT bowel cancer cells are treated with substance (Ic′) with the determined IC50 concentration for 24 hours, and then the cells are incubated with BrdU. The cells fixed with methanol are subjected to a treatment with a detergent (Triton X-100/HCl) in order to denature the DNA strands. After incubation with the fluorescence-labeled antibody (anti-BrdU mAb, FITC-labeled), the second fluorescent dye (PI, propidium iodide) is added.
The DNA content (propidium iodide fluorescence) and the amount of BrdU taken up (FITC fluorescence) are determined using a Coulter flow cytometer (Coulter EPICS XL). Exemplary results are depicted in FIG. 3a and 3b.
FIG. 3a and 3b show BrdU and PI uptakes into the DNA of HCT8 WT cells, untreated (control, […]) and treated with substance (Ic′) (IC50, 24 hours, FIG. 4b). The depicted results are representative of n=3 independent experiments.

[18] = system: H460 WT bronchial carcinoma cells; experiment: DNA double-strand breaks in [14C]d-thymidine-labeled cells, H460 WT; type: cell-based, human; details: up to 10 times the IC50 concentration, 6 hours
Description: (§1) DNA isolated after treatment of the cells for various times with substance (Ic′) is for this purpose analyzed by gel electrophoresis.
(§2) Determination of the DNA double-strand breaks is performed on ^14C-labeled DNA. For this purpose, [^14C]d-thymidine-labeled cells are treated with various concentrations of substance (Ic′). The DNA is isolated by an adapted method of Chia Chiao et al.
(§3) The DNA fractionated by gel electrophoresis is subsequently stained with ethidium bromide.
(§4) On a transilluminator (302 nm), the intact DNA which has not migrated in the electric field is separated from the fragmented DNA, which has thus migrated into the gel, by extraction. The isolated gel and DNA fragments are liquefied at +80° C. in the presence of hydrochloric acid. After addition of a scintillator it is possible to determine the radioactivity using a liquid scintillation meter (TPI-CARB 2100RT). The measured radioactivity is indicated in […] (cpm).
The results represent averages and their standard deviation from n=3 independent experiments.

[19] = system: HT29 WT colorectal carcinoma cells; experiment: DNA double-strand breaks, HT29 WT; type: cell-based, human
Description: as §1, §2, §3, §4

human telomerase = target: T2, human telomerase (Homo sapiens, UniProt O14746); experiment: Telomeric Repeat Amplification Assay (TRAP) ELISA; type: biochemical; details: at 50 μg/ml; telomerase from HCT8 WT cells; range 10 to 50 μg/ml tested
T2 construct: human telomerase obtained from cells of a colon carcinoma (HCT8 WT); endogenous in cells; host or cells: HCT8 WT colon carcinoma cells
T2 sequence (O14746 whole entry): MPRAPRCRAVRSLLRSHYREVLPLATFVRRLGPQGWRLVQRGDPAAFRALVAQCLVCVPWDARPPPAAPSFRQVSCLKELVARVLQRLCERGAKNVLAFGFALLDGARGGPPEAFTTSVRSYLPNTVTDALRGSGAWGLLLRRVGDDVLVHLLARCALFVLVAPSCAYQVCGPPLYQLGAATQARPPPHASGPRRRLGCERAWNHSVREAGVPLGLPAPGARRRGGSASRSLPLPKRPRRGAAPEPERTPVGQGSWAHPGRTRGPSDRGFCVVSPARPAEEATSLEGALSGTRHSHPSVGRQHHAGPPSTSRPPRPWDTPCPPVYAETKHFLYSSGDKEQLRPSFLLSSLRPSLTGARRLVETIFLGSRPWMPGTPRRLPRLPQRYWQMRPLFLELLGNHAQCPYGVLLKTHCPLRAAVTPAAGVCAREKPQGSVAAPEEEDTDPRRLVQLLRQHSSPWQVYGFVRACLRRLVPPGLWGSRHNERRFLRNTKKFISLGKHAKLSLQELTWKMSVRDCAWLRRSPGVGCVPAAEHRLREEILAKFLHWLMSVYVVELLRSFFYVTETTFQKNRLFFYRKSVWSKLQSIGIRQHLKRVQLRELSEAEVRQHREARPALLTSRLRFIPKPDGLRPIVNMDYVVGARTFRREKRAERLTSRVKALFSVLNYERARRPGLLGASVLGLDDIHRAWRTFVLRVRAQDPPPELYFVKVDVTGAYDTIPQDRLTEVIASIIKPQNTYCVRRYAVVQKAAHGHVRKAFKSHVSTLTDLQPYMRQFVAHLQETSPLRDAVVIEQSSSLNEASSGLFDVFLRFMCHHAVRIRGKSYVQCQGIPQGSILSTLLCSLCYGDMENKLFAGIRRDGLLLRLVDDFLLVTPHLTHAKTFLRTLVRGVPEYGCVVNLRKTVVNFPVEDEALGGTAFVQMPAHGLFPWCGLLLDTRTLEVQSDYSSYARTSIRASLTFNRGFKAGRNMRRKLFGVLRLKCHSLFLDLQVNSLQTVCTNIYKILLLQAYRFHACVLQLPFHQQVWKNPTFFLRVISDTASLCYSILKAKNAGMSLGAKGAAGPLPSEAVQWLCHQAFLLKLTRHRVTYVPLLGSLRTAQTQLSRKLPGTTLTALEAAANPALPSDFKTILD
T2 sequence (O60832 whole entry partner): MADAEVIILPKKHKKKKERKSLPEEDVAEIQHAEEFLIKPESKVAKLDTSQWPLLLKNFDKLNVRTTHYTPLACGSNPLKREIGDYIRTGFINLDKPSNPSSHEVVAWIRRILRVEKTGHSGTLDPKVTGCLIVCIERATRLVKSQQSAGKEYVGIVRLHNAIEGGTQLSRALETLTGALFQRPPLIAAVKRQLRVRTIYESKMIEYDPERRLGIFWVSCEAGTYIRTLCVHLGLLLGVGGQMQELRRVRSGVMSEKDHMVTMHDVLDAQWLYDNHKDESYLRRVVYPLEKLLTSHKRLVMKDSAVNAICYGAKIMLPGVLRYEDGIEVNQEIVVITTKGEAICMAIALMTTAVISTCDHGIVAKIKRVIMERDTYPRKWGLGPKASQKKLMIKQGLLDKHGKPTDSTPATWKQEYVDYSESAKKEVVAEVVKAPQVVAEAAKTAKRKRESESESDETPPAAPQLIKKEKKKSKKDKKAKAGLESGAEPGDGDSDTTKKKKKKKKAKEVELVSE
T2 sequence (Q9NX24 whole entry partner): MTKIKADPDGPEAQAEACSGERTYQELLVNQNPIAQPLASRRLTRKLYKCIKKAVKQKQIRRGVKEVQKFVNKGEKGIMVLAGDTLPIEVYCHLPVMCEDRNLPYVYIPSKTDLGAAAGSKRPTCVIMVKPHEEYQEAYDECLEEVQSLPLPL
T2 sequence (Q9NPE3 whole entry partner): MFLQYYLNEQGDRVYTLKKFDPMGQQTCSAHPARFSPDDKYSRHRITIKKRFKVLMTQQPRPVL
T2 sequence (Q9NY12 whole entry partner): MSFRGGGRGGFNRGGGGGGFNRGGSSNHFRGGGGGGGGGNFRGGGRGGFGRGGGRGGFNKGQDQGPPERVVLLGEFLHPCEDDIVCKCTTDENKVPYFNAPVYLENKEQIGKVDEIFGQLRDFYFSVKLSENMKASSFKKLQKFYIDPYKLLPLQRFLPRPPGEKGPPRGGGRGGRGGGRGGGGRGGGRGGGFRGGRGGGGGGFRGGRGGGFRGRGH
T2 sequence (Q9BUR4 whole entry partner): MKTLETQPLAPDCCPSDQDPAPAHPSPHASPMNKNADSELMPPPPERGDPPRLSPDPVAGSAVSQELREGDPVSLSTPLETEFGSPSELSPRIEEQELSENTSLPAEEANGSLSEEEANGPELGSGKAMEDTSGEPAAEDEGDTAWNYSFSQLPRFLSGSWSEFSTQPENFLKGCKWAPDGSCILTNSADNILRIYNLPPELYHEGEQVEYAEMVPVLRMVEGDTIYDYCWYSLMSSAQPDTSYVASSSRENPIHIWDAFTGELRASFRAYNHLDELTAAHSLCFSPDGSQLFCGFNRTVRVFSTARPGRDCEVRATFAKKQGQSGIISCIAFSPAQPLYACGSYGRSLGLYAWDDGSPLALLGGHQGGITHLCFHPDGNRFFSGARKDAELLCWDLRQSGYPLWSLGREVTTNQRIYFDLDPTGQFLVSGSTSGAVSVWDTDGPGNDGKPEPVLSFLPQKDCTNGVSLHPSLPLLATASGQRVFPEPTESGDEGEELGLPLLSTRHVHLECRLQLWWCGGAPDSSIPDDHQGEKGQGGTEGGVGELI
Description: The effect of substance (Ic′) on human telomerase is determined by carrying out the so-called Telomeric Repeat Amplification Assay (TRAP) ELISA, based on the method of N. W. Kim et al.
This method is based on use of the polymerase chain reaction (PCR). This entails, in a first step, a number of (GGTTAG) motifs being attached by means of the telomerase activity to the 3′ end of a biotin-labeled oligonucleotide (TS=telomerase substrate). In a second step, the products extended in this way are amplified by the PCR technique using TS and RP (R=reverse) primers. In this way, a “ladder” of products in increments of 6 bases (initial size=50 nucleotides) is generated. During the amplification, DNP-labeled dCTP is incorporated into the PCR products. Detection and quantification of the synthesized telomerase products using a sandwich ELISA method are a measure of the telomerase enzymatic activity.
The telomerase products carry the biotin-labeled TS primers and bind to the surface of microtiter plates previously coated with streptavidin. An anti-DIG antibody conjugated to POD binds to the […] nucleotides incorporated during the amplification. After addition of the substrate TMB, the telomerase activity is visualized by […] via the onset of the color reaction by the enzyme POD. In this case, the measured absorption is directly proportional to the telomerase activity. […]

Taq polymerase = Taq polymerase (Thermus aquaticus, UniProt P19821); experiment: TSR8 template control experiment (DNA polymerase); type: biochemical; details: maximum concentration 50 μg/ml
Chain of Taq polymerase (P19821 whole entry): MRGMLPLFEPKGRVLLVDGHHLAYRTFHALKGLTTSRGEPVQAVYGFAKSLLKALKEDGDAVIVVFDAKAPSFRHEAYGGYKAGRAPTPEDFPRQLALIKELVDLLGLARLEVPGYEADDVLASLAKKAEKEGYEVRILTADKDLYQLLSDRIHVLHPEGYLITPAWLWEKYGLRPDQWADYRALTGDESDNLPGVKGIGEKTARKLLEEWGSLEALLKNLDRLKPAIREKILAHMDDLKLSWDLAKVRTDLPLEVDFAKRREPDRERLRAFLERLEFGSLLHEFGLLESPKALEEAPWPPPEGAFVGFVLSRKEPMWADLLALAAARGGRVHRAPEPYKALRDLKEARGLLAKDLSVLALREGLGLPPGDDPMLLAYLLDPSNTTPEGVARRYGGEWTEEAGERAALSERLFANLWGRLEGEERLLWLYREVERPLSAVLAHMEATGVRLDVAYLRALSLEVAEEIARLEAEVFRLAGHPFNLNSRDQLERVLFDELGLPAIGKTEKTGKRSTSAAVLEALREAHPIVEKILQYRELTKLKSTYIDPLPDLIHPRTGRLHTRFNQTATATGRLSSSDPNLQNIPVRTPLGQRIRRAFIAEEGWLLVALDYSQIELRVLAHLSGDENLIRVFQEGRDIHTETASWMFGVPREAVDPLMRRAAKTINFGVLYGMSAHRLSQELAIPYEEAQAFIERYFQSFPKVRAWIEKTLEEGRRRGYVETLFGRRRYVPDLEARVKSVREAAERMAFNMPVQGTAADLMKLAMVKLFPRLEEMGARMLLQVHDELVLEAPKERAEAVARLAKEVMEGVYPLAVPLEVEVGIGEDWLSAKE
Description: In order to ensure the effect of substance (Ic′) on telomerase, an effect of substance (Ic′) on DNA polymerase must be ruled out. In a preliminary experiment with TSR8 as internal control, the effect of substance (Ic′) at various concentration levels was ruled out.
Amplification of the TSR8 template depends only on DNA polymerase. Every inhibitor of this enzyme can be detected using the substrate.
The experiment is carried out in triplicates.

[20] = system: ERK1/2 protein (MAP kinase); experiment: Western blot analysis of ERK1/2 phosphorylation; type: cell-based, human; details: HCT8 WT, detectable even at a dose corresponding to the IC50
Description: Phosphorylation of certain signal transduction pathways plays an essential role in the regulation of cell growth and gene expression. The protein ERK1/2 (MAP kinase) belongs to the MAP kinase signal transduction pathway.
Treatment of human colon carcinoma cells (HCT8 WT) with substance (Ic′) leads to phosphorylation of this protein, which is detected in a Western blot analysis (FIG. 8).

[21] = system: HCT8 WT colon carcinoma cells
Description: In this case, tumor cells, e.g. colon carcinoma cells (HCT8 WT), are coincubated with both active ingredients in different dosages in each case for 24 hours (FIG. 9). FIG. 9 represents the coincubation experiment on the cytotoxicity with substance (Ic′) and a specific ERK1/2 inhibitor (MAP kinase inhibitor). HCT8 WT cells were coincubated. The points shown indicate the corresponding ratios (% of the respective IC50 concentration) of the two active ingredients to one another.

[22] = system: tumor cell lines (native and resistant subclones) and non-tumor cell lines
Description: as §5, §6, §7

1-Benzoyl-8,8-dimethyl-2-hydroxy-3,5,7-tris-(3-methyl-2-butenyl)bicyclo[3.3.1]non-2-ene-4,9-dione [Substance (Ic′)]
IC50 [1]: 5.70 ± 0.21 µg/mL | IC50 [2]: 4.77 ± 0.13 µg/mL | IC50 [3]: 5.25 ± 0.43 µg/mL | IC50 [4]: 5.18 ± 0.76 µg/mL | IC50 [5]: 3.50 ± 1.40 µg/mL | IC50 [6]: 4.23 ± 0.19 µg/mL | IC50 [7]: 4.07 ± 0.08 µg/mL | IC50 [8]: 4.44 ± 0.13 µg/mL | IC50 [9]: 4.37 ± 0.12 µg/mL | IC50 [10]: 4.28 ± 0.08 µg/mL | IC50 [11]: 3.30 ± 0.51 µg/mL | IC50 [12]: 9.20 ± 0.82 µg/mL | IC50 [13]: 6.75 ± 1.55 µg/mL | IC50 [14]: 6.23 ± 0.12 µg/mL | IC50 [15]: 4.21 ± 0.91 µg/mL | IC50 (3T3 mouse fibroblasts): >80.0 µg/mL | IC50 [16]: 21.73 ± 6.47 µg/mL | inhibition of topoisomerase I activity (topoisomerase I; at 100 μg/ml, 160 ng cell nucleus extract): 100% | concentration for in vitro topoisomerase I inhibition as multiple of the IC50 of tumor growth (topoisomerase I): 20 times | effect on the cell cycle (BrdU uptake) [17]: inhibition of the synthesis phase | induction of DNA double-strand breaks [18]: induces significant amounts of double-strand breaks | induction of DNA double-strand breaks [19]: induction of substantial amounts of double-strand breaks | inhibition of human telomerase (human telomerase): Complete inhibition | inhibition of Taq polymerase (TSR8 template) (Taq polymerase): does not lead to a significant inhibition | phosphorylation of the ERK1/2 protein [20]: dose-dependent phosphorylation | cytotoxicity on coincubation with a specific ERK1/2 inhibitor (MAP kinase inhibitor) [21]: pronounced synergism | effect of the combination on tumor cell growth ([21]; 30% of IC50 of substance (Ic′) with 30% of IC50 of the specific ERK1/2 inhibitor, HCT8 WT): inhibition of growth | cytotoxicity for the non-tumor cell lines compared with tumor cell lines [22]: considerably less | cross-resistance to the indicated cytostatics ([22]; resistant subclones vs native cell lines, SRB assay): no cross-resistance

CC[C@@]1(O)C(=O)OCc2c1cc1n(c2=O)Cc2cc3c(CN(C)C)c(O)ccc3nc2-1 [topotecan, reference compound]
concentration for in vitro topoisomerase I inhibition as multiple of the IC50 of tumor growth (topoisomerase I): 1000 times

Reference: patent US7199161B2, “Substituted bicylo[3.3.1]nonan-2,4,9-triones as pharmaceutical active ingredients” (Diagenics International Corporation, priority 2002, dated 2007)
